These are literature values, as cited in patent US12504433B2, “Methods, systems and kits for in-pen assays” (BRUKER CELLULAR ANALYSIS, INC., priority 2020, dated 2025).

The target of data set [1] is IgG.
For data set [2], the system named is Fc of hIgG. Particulars: read-out: Affinity for IgG.

With “CPD 1: Protein A-AF594, Pierce Recombinant Protein A (ThermoFisher Cat. # 77674)”, in data set [1] (stated in words), the “Affinity for IgG” value was “nanomolar”.
For the substance “5′-rGp-rGp-rAp-rGp-rGp-fUp-fCp-fCp-rGp-rAp-rAp-rAp-rGp-rGp-rAp-fCp-fUp-fCp-fCp-3′ [CPD 5]”, the Kd in data set [2] is 75 nM.
With “DCAWHLGELVWCT [CPD 4, Asp Cys Ala Trp His Leu Gly Glu Leu Val Trp Cys Thr]”, the Kd in data set [1] (Fc, read-out: Affinity for IgG) is 100 nM.
